Patent publication EP3638219B1, “COMPOSITION COMPRISING TERPINENE-4-OL FOR THE TREATMENT OF DEMODICOSIS” (priority 2017, dated 2018)

What was measured:
demodex = conditions: components of TTO; WO06119174 A1 and WO09032773 A2; cited from earlier work
[1] = Physical stability of terpinen-4-ol in aqueous media (phase separation, clarity); assay type: physicochemical
Protocol: The compositions according to the invention are physically stable, i.e. clear, transparent and without precipitates, and substantially retain the initial content of the initial ingredient.
For example, on a lab scale, terpinen-4-ol and a mixture of PPG-26 buteth-26 (b2), PEG-40 hydrogenated castor oil (b3) and trideceth-9 (b4) were mixed in water and stirred for about 30 minutes. Cocamidopropyl betaine was then added and a clear solution was obtained, which was verified as stable.

Compound | activity against demodex in vitro (demodex) | behaviour in aqueous media ([1]; concentrations below 2% in weight/weight of the composition, in the presence of commonly used emulsifiers and surfactants) | behaviour in aqueous media ([1]; in the presence of Tween 20 in a weight ratio to terpinen-4-ol up to 5:1)
C=C(C)C1CC=C(C)C(=O)C1 (stereo not shown) [carvone, reference compound] | active | – | –
CC1=CCC(O)(C(C)C)CC1 (stereo not shown) [terpinen-4-ol] | active | tends to separate from aqueous media | two-phase system
